The text below walks through data of patent US5767142A, “Trisbenzimidazoles useful as topoisomerase I inhibitors” (Rutgers, The State University of New Jersey, priority 1996, dated 1998).

Data set [1] concerns human lymphoblast RPMI 8402 cells. As to the kind of experiment: MTT cytotoxicity assay, RPMI 8402. Type of data set: cell-based. Conditions: for pIC50: Homo sapiens, RPMI 8402, 96 h, read-out: Cytotoxicity IC50, RPMI. How it is done:
(§1) The cytotoxicity was determined using the as MTT-microtiter plate tetrazolinium cytotoxicity assay (MTA) following the procedures of F. Denizot et al., J. Immunol. […] The cytotoxicity assay was performed using 96-well microtiter plates. Cells were grown in suspension at 37° C. in 5% CO2 and maintained by regular passage in RPMI medium supplemented with 10% heat inactivated fetal bovine serum, L-glutamine (2 mM), penicillin (100 U/ml), and streptomycin (0.1 mg/ml). For determination of IC50, cells were exposed continuously with varying concentrations of drug concentrations and MTT assays were performed at the end of the fourth day.
(In general: Tetrazolium assays rely on reduction of a dye to a coloured formazan, in cell work by metabolically active cells.)

The subject of data set [2] is CPT-K5 cells (camptothecin-resistant variant of RPMI 8402). The data set can be described thus: MTT cytotoxicity assay, camptothecin-resistant CPT-K5. Type of data set: cell-based, human. The settings on record: Homo sapiens, CPT-K5, 96 h, read-out: Cytotoxicity IC50, CPT-K5. How it is done:
as §1

In data set [3] the target is T1, calf thymus topoisomerase I (Bos taurus, UniProt A0AAA9TV68).
T1 construct: plasmid YEpG DNA cleavage assay
T1 sequence (A0AAA9TV68 2-769): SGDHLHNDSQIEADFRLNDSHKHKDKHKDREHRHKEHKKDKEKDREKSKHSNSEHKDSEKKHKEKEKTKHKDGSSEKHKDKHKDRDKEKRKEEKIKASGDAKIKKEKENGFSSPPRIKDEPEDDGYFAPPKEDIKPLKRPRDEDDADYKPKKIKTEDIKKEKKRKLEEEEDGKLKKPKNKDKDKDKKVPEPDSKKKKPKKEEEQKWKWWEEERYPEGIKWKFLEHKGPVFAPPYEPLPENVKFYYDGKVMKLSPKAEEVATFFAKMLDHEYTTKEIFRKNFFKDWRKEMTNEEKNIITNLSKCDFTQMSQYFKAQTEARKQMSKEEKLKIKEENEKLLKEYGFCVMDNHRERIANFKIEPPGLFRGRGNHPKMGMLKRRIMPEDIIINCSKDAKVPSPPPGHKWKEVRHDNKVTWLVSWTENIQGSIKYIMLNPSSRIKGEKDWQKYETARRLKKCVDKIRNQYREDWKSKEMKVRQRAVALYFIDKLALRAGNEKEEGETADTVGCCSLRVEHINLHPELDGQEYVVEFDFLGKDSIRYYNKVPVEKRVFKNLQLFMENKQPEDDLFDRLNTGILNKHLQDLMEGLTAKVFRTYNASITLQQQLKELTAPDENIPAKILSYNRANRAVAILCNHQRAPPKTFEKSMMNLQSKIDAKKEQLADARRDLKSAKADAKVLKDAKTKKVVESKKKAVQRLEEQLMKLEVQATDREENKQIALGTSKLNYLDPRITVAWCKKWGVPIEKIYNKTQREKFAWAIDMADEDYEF
The data set can be described thus: Topoisomerase I-mediated DNA cleavage assay (calf thymus topoisomerase I, plasmid YEpG). The data set is classed as biochemical. The text has this:
DNA topoisomerase I was purified from calf thymus gland as reported previously by B. D. Halligan et al., J. Biol. Chem., 260, 2475 (1985). Plasmid YEpG was also purified by the alkali lysis method followed by phenol deproteination and CsCl/ethidium isopycnic centrifugation as described by T. Mariatis et al., Molecular Cloning, A Laboratory Manual, Cold Spring Harbor Labs, NY (1982) at pages 149-185. The end-labeling of the plasmid was accomplished as previously described by L. F. Liu et al., J. Biol. Chem., 258, 15365 (1983). The cleavage assays were performed as previously reported by A. Y. Chen et al., Cancer Res., 53, 1332 (1993). Human topoisomerase was isolated as a recombinant fusion protein using a T7 expression system.
^b Topoisomerase I cleavage values are reported as REC, Relative
Effective Concentration, i.e. concentrations relative to Hoechst 33342,
whose value is arbitrarily assumed as 1, that are able to produce the sam
cleavage on the plasmid DNA in the presence of calf thymus topoisomerase
I. Cleavage is calculated from the intensity of the strongest Hoechst

In the next data set the test system is mammalian tumor cells. As to the kind of experiment: Cytotoxicity to tumor cells, general statement. The data set is classed as cell-based. Conditions: cell line not specified.
Data set [4] concerns human epidermoid carcinoma KB3-1 cell line. The data set can be described thus: MTT cytotoxicity assay, KB3-1. The data set is classed as cell-based. Conditions: KB 3-1, 96 h, 4 days continuous drug exposure. As to the method: as §1
(§2) These cells were grown as monolayer cultures at in 5% CO2 and maintained by regular passage in Dulbecco's minimal essential medium supplemented with 10% heat inactivated fetal bovine serum. KBV-1 cells were similarly maintained except they were grown in the presence of 1 μg/ml vinblastine.

Data set [5] concerns KBV-1 cells (multidrug-resistant variant of KB3-1, overexpress MDR1). As to the kind of experiment: MTT cytotoxicity assay, multidrug-resistant KBV-1. The data set is classed as cell-based, human. Conditions: Homo sapiens, KB-V1, 96 h; 4 days continuous drug exposure; read-out: Cytotoxicity IC50, KBV-1. As to the method:
as §1, §2

The next data set deals with fungi. As to the kind of experiment: Antifungal activity.
Data set [6] concerns CPT-K5 cells (camptothecin-resistant variant of RPMI 8402). Conditions: as reported by A. Y. Chen et al., Cancer Res., 53, 1332 (1993); cited from earlier work.
Where [7] appears, read: 4 days continuous drug exposure.

pIC50: −log10 of the molar value. Read-outs that look alike come from different tables or passages of the source. Where only a bound is given, the exact number is not on record here.

As a reminder, the pIC50 is the negative decadic logarithm of the IC50, by convention in mol/L. For the compound `c1ccc2[nH]c(-c3ccc4[nH]c(-c5ccc6[nH]cnc6c5)nc4c3)nc2c1` [Compound 10, 2-[2'-(Benzimidazol-5"-yl)benzimidazol-5'-yl]benzimidazole], in data set [1], the “Cytotoxicity towards RPMI 8402 (in words)” value was “failed to exhibit significant cytotoxicity” and the pIC50 is 4.85. The pIC50 in data set [2] is 4.55.

As to `N#Cc1ccc2[nH]c(-c3ccc4[nH]c(-c5ccc6[nH]cnc6c5)nc4c3)nc2c1` [Compound 11, 5-Cyano-2-[2'-(benzimidazol-5"-yl)benzimidazol-5'-yl]benzimidazole], the “Cytotoxicity towards RPMI 8402 (in words)” value in data set [1] was “failed to exhibit significant cytotoxicity”. Moreover, the pIC50 in data set [1] (setting [7]) and in data set [2] (setting [7]) was less than 4.60 each time.

For `CCCc1ccc2nc(-c3ccc4nc(-c5ccc6nc[nH]c6c5)[nH]c4c3)[nH]c2c1` [Compound 12, 5-Propyl-2-[2'-(benzimidazol-5"-yl)benzimidazol-5'-yl]benzimidazole], in data set [3], the “Potency as topoisomerase I inhibitor (in words)” value is recorded as “much less active than either 10, 11, or 13 as an inhibitor of topoisomerase I”. The pIC50 in data set [1] (setting [7]) was 5.12; in data set [2] (setting [7]) it was 4.70. Also, the “Cytotoxicity to tumor cells (in words)” value with mammalian tumor cells is “weak cytotoxicity”.

`c1ccc(-c2ccc3nc(-c4ccc5nc(-c6ccc7nc[nH]c7c6)[nH]c5c4)[nH]c3c2)nc1` [Compound 14, 5-(2-Pyridyl)-2-[2'-(benzimidazol-5"-yl)benzimidazol-5'-yl]benzimidazole]: the pIC50 in data set [1] (setting [7]) was 6.80; in data set [2] it was 5.24; in data set [4] it was 7.30; in data set [5] it was 7.05. Besides, in the data set on fungi, the “Antifungal activity (in words)” value is recorded as “exhibits antifungal activity”.

As for `c1cncc(-c2ccc3nc(-c4ccc5nc(-c6ccc7nc[nH]c7c6)[nH]c5c4)[nH]c3c2)c1` [Compound 15, 5-(3-Pyridyl)-2-[2'-(benzimidazol-5"-yl)benzimidazol-5'-yl]benzimidazole], in data set [3], the “Potency as topoisomerase I inhibitor (in words)” value is on record as “somewhat more active than the 2-pyridyl derivative, 14, as topoisomerase I inhibitors”. For the same compound, the pIC50 in data set [1] (setting [7]) was 7.46; in data set [2], 5.60; in data set [4], 7.70; in data set [5] it was 7.70. The “Cytotoxicity to tumor cells (in words)” value in the data set with mammalian tumor cells is recorded as “somewhat more active than the 2-pyridyl derivative, 14, as topoisomerase I inhibitors as well as cytotoxic agents”.

For `c1cc(-c2ccc3nc(-c4ccc5nc(-c6ccc7nc[nH]c7c6)[nH]c5c4)[nH]c3c2)ccn1` [Compound 16, 5-(4-Pyridyl)-2-[2'-(benzimidazol-5"-yl)benzimidazol-5'-yl]benzimidazole], the “Potency as topoisomerase I inhibitor (in words)” value in data set [3] is “somewhat more active than the 2-pyridyl derivative, 14, as topoisomerase I inhibitors”. Further, the pIC50 is 7.46 in data set [1] (setting [7]), 5.60 in data set [2], 7.70 in data set [4] and 8.00 in data set [5]. For the same compound, the “Cytotoxicity to tumor cells (in words)” value in the data set with mammalian tumor cells is “somewhat more active than the 2-pyridyl derivative, 14, as topoisomerase I inhibitors as well as cytotoxic agents”.

On to `N#Cc1ccc2nc(-c3ccc4nc[nH]c4c3)[nH]c2c1` [Compound 19, 5-Cyano-2-(benzimidazol-5'-yl)benzimidazole], for which, in data set [1] (setting [7]), the negative-log IC50 (pIC50) was less than 4.60.

Take `Brc1ccc2nc(-c3ccc4nc(-c5ccc6nc[nH]c6c5)[nH]c4c3)[nH]c2c1` [JSKIV-37, 5-Bromo-2-[2'-(benzimidazol-5"-yl)benzimidazol-5'-yl]-benzimidazole]: the pIC50 in data set [2] is 5.85.

As for `Clc1ccc(-c2ccc3nc(-c4ccc5nc(-c6ccc7nc[nH]c7c6)[nH]c5c4)[nH]c3c2)cc1` [JSKIV-47, 5-(p-Chlorophenyl)-2-[2'-(benzimidazol-5"-yl)benzimidazol-5'-yl]-benzimidazole], the figures for the pIC50 in data set [1] (setting [7]) and in data set [2] (setting [7]) were 7.05 and 6.70, respectively.

`Clc1ccc2nc(-c3ccc4nc(-c5ccc6nc[nH]c6c5)[nH]c4c3)[nH]c2c1` [JSKIV-68, 5-Chloro-2-[2'-(benzimidazol-5"-yl)benzimidazol-5'-yl]-benzimidazole]: the pIC50 is 5.98 in data set [1] (setting [7]) and 6.19 in data set [2].

For `CC[C@@]1(O)C(=O)OCc2c1cc1n(c2=O)Cc2cc3ccccc3nc2-1` [camptothecin], in data set [6], the “Relative resistance of camptothecin (ratio of IC50 values of resistant versus drug sensitive cell line)” value is 2,500 fold.
